Like-named read-outs stand apart in the source and are kept apart here. Numbered stars: 1 amine (or outer) side, 2 acyl side, 3 side chain; on linkers, the order of the positions; unused ones are H or OH. Square brackets hold non-standard residues; d marks the D form. Side chains are listed from the residue outwards. Peptide text beside a SMILES is read from it. * marks the point of attachment. γGlu = O=C(O)[C@H](CCC(=O)[*:2])N[*:1]; C14 diacid = O=C(O)CCCCCCCCCCCCC(=O)*; AEEA = NCCOCCOCC(=O)O; Aib = CC(C)(N)C(=O)O
Columns and labels:
[1] = target: T1, human GLP-1 receptor (Homo sapiens, UniProt P43220); assay: GLP-1 receptor binding: displacement of 125I-GLP-1 (SPA) at low and high albumin; settings: for Ratio [(IC50/nM) high HSA]/[(IC50/nM) low HSA]: 2.0% HSA vs 0.001% HSA
T1 construct: expressed in transfected cells; membranes
T1 sequence (P43220 24-463): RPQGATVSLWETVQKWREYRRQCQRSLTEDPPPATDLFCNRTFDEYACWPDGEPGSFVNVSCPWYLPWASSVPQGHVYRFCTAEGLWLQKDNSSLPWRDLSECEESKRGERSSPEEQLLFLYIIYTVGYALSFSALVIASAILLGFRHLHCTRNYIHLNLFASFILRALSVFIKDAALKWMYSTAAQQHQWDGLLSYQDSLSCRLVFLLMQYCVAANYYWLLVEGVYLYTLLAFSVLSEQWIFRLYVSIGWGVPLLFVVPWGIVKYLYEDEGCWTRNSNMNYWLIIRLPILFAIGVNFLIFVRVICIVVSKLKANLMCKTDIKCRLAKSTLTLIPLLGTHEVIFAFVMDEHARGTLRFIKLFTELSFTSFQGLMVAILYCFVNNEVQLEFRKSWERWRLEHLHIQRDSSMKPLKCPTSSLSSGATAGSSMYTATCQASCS
Description: The purpose of this experiment is to investigate the binding to the GLP-1 receptor of the GLP-1 derivatives, and how the binding is potentially influenced by the presence of albumin. This is done in an in vitro experiment as described below.
In order to test the binding of the derivatives to albumin, the assay was performed with a low concentration of albumin (0.001%—corresponding to the residual amount thereof in the tracer), as well as with a high concentration of albumin (2.0% added). A shift in the binding affinity, IC50, is an indication that the peptide in question binds to albumin, and thereby a prediction of a potential protracted pharmacokinetic profile of the peptide in question in animal models.
Species (in vitro): Hamster
Biological End Point: Receptor Binding
A stable transfected cell line and a high expressing clone were selected for screening. The cells were grown at 5% CO2 in DMEM, 10% FCS, 1% Pen/Strep (Penicillin/Streptomycin) and 1.0 mg/ml of the selection marker G418.
The cells (approx. 80% confluence) were washed twice in PBS and harvested with Versene (aqueous solution of the tetrasodium salt of ethylenediaminetetraacetic acid), following which they were separated by centrifugation at 1000 rpm for 5 min. The cells/cell pellet must be kept on ice to the extent possible in the subsequent steps. The cell pellet was homogenised with Ultrathurrax for 20-30 seconds in a suitable amount of Buffer 1 (depending on the amount of cells, but e.g. 10 ml). The homogenate was centrifuged at 20000 rpm for 15 minutes. The pellet was resuspended (homogenised) in 10 ml Buffer 2 and re-centrifuged. This step was repeated once more. The resulting pellet was resuspended in Buffer 2, and the protein concentration was determined. The membranes were stored at minus 80° C.
Buffer 1: 20 mM Na-HEPES+10 mM EDTA, pH 7.4
Buffer 2: 20 mM Na-HEPES+0.1 mM EDTA, pH 7.4
Test compounds, membranes, SPA-particles and [^125I]-GLP-1(7-36)NH2 were diluted in assay buffer. 50 ul (micro liter) HSA (“high albumin” experiment containing 2% HSA), or buffer (“low albumin” experiment containing 0.001% HSA), was added to Optiplate, and 25 ul of test compounds were added. 5-10 ug membrane protein/sample was added (50 ul) corresponding to 0.1-0.2 mg protein/ml (to be preferably optimised for each membrane preparation). SPA-particles (Wheatgerm agglutinin SPA beads, Perkin Elmer, #RPNQ0001) were added in an amount of 0.5 mg/well (50 ul). The incubation was started with [^125I]-GLP-1]-(7-36)NH2 (final concentration 0.06 nM corresponding to 49.880 DPM, 25 ul). The plates were sealed with PlateSealer and incubated for 120 minutes at 30° C. while shaking. The plates were centrifuged (1500 rpm, 10 min) and counted in Topcounter.

[2] = Estimate of oral bioavailability: gut injection in rat (caprate), exposure in plasma; type: in vivo; settings: injection in jejunum, 1000 uM in 55 mg/ml sodium caprate, plasma concentration (pM) at 30 min divided by dosing solution concentration (μM), mean n=4
In short: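 Male Sprague Dawley rats (~240 g, n=4) received 100 μl of 1000 uM derivative in 55 mg/ml sodium caprate by catheter into proximal or mid jejunum. Tail-vein EDTA plasma was sampled up to 240 min. Peptide was quantified by two-antibody bead chemiluminescence immunoassay, giving mean concentration-time profiles (pmol/l).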

[3] = low albumin, 0.001% HSA, read-out: IC50/nM (low HSA)

| Compound | Ratio [(IC50/nM) high HSA]/[(IC50/nM) low HSA] [1] | Dose-corrected exposure at 30 min [2] | IC50 [1, 3] [nM] | IC50 ([1]; high albumin, 2.0% HSA, read-out: IC50/nM (high HSA)) [nM] |
| --- | --- | --- | --- | --- |
| CC[C@H](C)[C@H](NC(=O)[C@H](Cc1ccccc1)NC(=O)[C@H](CCCCNC(=O)COCCOCCNC(=O)COCCOCCNC(=O)CC[C@H](NC(=O)CCCCCCCCCCCCC(=O)O)C(=O)O)NC(=O)[C@H](CCCNC(=N)N)NC(=O)[C@@H](NC(=O)[C@H](C)NC(=O)[C@H](CCC(N)=O)NC(=O)[C@H](CCCCNC(=O)COCCOCCNC(=O)COCCOCCNC(=O)CC[C@H](NC(=O)CCCCCCCCCCCCC(=O)O)C(=O)O)NC(=O)[C@H](CCC(=O)O)NC(=O)[C@H](CC(C)C)NC(=O)[C@H](Cc1ccc(O)cc1)NC(=O)[C@H](CO)NC(=O)[C@H](CO)NC(=O)[C@@H](NC(=O)[C@H](CC(=O)O)NC(=O)[C@H](CO)NC(=O)[C@@H](NC(=O)[C@H](Cc1ccccc1)NC(=O)[C@@H](NC(=O)CNC(=O)[C@H](CCC(=O)O)NC(=O)C(C)(C)NC(=O)[C@@H](N)Cc1c[nH]cn1)[C@@H](C)O)[C@@H](C)O)C(C)C)C(C)C)C(=O)N[C@@H](C)C(=O)N[C@@H](Cc1c[nH]c2ccccc12)C(=O)N[C@@H](CC(C)C)C(=O)N[C@H](C(=O)N[C@@H](CCCNC(=N)N)C(=O)O)C(C)C [Example 8, N^ε22-[2-[2-[2-[[2-[2-[2-[[(4S)-4-carboxy-4-(13-carboxytridecanoylamino)butanoyl]amino]ethoxy]ethoxy]acetyl]amino]ethoxy]ethoxy]acetyl], N^ε27-[2-[2-[2-[[2-[2-[2-[[(4S)-4-carboxy-4-(13-carboxytridecanoylamino)butanoyl]amino]ethoxy]ethoxy]acetyl]amino]ethoxy]ethoxy]acetyl]-[Aib^8,Lys^22,Val^25,Arg^26,Lys^27,Arg^34]-GLP-1-(7-34)-peptide] (H-H[Aib]EGTFTSDVSSYLEK([AEEA-AEEA-γGlu-C14 diacid])QAVRK([AEEA-AEEA-γGlu-C14 diacid])FIAWLVR-OH) | 57 | 86 | – | – |
| CC[C@H](C)[C@H](NC(=O)[C@H](Cc1ccccc1)NC(=O)[C@H](CCCCNC(=O)COCCOCCNC(=O)COCCOCCNC(=O)CC[C@H](NC(=O)CCCCCCCCCCCCC(=O)O)C(=O)O)NC(=O)[C@H](CCCNC(=N)N)NC(=O)[C@@H](NC(=O)[C@H](C)NC(=O)[C@H](CCC(N)=O)NC(=O)[C@H](CCCCNC(=O)COCCOCCNC(=O)COCCOCCNC(=O)CC[C@H](NC(=O)CCCCCCCCCCCCC(=O)O)C(=O)O)NC(=O)[C@H](CCC(=O)O)NC(=O)[C@H](CC(C)C)NC(=O)[C@H](Cc1ccc(O)cc1)NC(=O)[C@H](CO)NC(=O)[C@H](CO)NC(=O)[C@@H](NC(=O)[C@H](CC(=O)O)NC(=O)[C@H](CO)NC(=O)[C@@H](NC(=O)[C@H](Cc1ccccc1)NC(=O)[C@@H](NC(=O)CNC(=O)[C@H](CCC(=O)O)NC(=O)C(C)(C)NC(=O)[C@@H](N)Cc1c[nH]cn1)[C@@H](C)O)[C@@H](C)O)C(C)C)C(C)C)C(=O)N[C@@H](C)C(=O)N[C@@H](Cc1c[nH]c2ccccc12)C(=O)N[C@@H](CC(C)C)C(=O)N[C@H](C(=O)N[C@@H](CCCNC(=N)N)C(=O)NCC(=O)O)C(C)C [Example 9, N^ε22-[2-[2-[2-[[2-[2-[2-[[(4S)-4-carboxy-4-(13-carboxytridecanoylamino)butanoyl]amino]ethoxy]ethoxy]acetyl]amino]ethoxy]ethoxy]acetyl],N^ε27-[2-[2-[2-[[2-[2-[2-[[(4S)-4-carboxy-4-(13-carboxytridecanoylamino)butanoyl]amino]ethoxy]ethoxy]acetyl]amino]ethoxy]ethoxy]acetyl]-Aib^8,Lys^22,Val^25,Arg^26,Lys^27,Arg^34l-GLP-1-(7-35)-peptide] (H-H[Aib]EGTFTSDVSSYLEK([AEEA-AEEA-γGlu-C14 diacid])QAVRK([AEEA-AEEA-γGlu-C14 diacid])FIAWLVRG-OH) | 157 | 65 | 0.38 | – |
| CC[C@H](C)[C@H](NC(=O)[C@H](Cc1ccccc1)NC(=O)[C@H](CCCCNC(=O)COCCOCCNC(=O)COCCOCCNC(=O)CC[C@H](NC(=O)CCCCCCCCCCCCC(=O)O)C(=O)O)NC(=O)[C@H](CCCNC(=N)N)NC(=O)[C@@H](NC(=O)[C@H](C)NC(=O)[C@H](CCC(N)=O)NC(=O)CNC(=O)[C@H](CCC(=O)O)NC(=O)[C@H](CC(C)C)NC(=O)[C@H](Cc1ccc(O)cc1)NC(=O)[C@H](CO)NC(=O)[C@H](CO)NC(=O)[C@@H](NC(=O)[C@H](CC(=O)O)NC(=O)[C@H](CO)NC(=O)[C@@H](NC(=O)[C@H](Cc1ccccc1)NC(=O)[C@@H](NC(=O)CNC(=O)[C@H](CCC(=O)O)NC(=O)C(C)(C)NC(=O)[C@@H](N)Cc1c[nH]cn1)[C@@H](C)O)[C@@H](C)O)C(C)C)C(C)C)C(=O)N[C@@H](C)C(=O)N[C@@H](Cc1c[nH]cn1)C(=O)N[C@@H](CC(C)C)C(=O)N[C@H](C(=O)N[C@@H](CCC(N)=O)C(=O)NCC(=O)N[C@@H](CCCNC(=N)N)C(=O)N[C@@H](CCCCNC(=O)COCCOCCNC(=O)COCCOCCNC(=O)CC[C@H](NC(=O)CCCCCCCCCCCCC(=O)O)C(=O)O)C(=O)O)C(C)C [Example 15, N^ε27-[2-[2-[2-[[2-[2-[2-[[(4S)-4-carboxy-4-(13-carboxytridecanoylamino)butanoyl]amino]ethoxy]ethoxy]acetyl]amino]ethoxy]ethoxy]acetyl], N^ε37-[2-[2-[2-[[2-[2-[2-[[(4S)-4-carboxy-4-(13-carboxytridecanoylamino)butanoyl]amino]ethoxy]ethoxy]acetyl]amino]ethoxy]ethoxy]acetyl]-[Aib^8,Val^25,Arg^26,Lys^27,His^31,Gln^34,Lys^37]-GLP-1-(7-37)-peptide] (H-H[Aib]EGTFTSDVSSYLEGQAVRK([AEEA-AEEA-γGlu-C14 diacid])FIAHLVQGRK([AEEA-AEEA-γGlu-C14 diacid])-OH) | 155 | 98 | 0.19 | 29 |
| CC[C@H](C)[C@H](NC(=O)[C@H](Cc1ccccc1)NC(=O)[C@H](CCCCNC(=O)COCCOCCNC(=O)COCCOCCNC(=O)CC[C@H](NC(=O)CCCCCCCCCCCCC(=O)O)C(=O)O)NC(=O)[C@H](CCCNC(=N)N)NC(=O)[C@@H](NC(=O)[C@H](C)NC(=O)[C@H](CCC(N)=O)NC(=O)CNC(=O)[C@H](CCC(=O)O)NC(=O)[C@H](CC(C)C)NC(=O)[C@H](Cc1ccc(O)cc1)NC(=O)[C@H](CO)NC(=O)[C@H](CO)NC(=O)[C@@H](NC(=O)[C@H](CC(=O)O)NC(=O)[C@H](CO)NC(=O)[C@@H](NC(=O)[C@H](Cc1ccccc1)NC(=O)[C@@H](NC(=O)CNC(=O)[C@H](CCC(=O)O)NC(=O)[C@H](C)NC(=O)[C@@H](N)Cc1c[nH]cn1)[C@@H](C)O)[C@@H](C)O)C(C)C)C(C)C)C(=O)N[C@@H](C)C(=O)N[C@@H](Cc1c[nH]cn1)C(=O)N[C@@H](CC(C)C)C(=O)N[C@H](C(=O)N[C@@H](CCC(N)=O)C(=O)NCC(=O)N[C@@H](CCCNC(=N)N)C(=O)N[C@@H](CCCCNC(=O)COCCOCCNC(=O)COCCOCCNC(=O)CC[C@H](NC(=O)CCCCCCCCCCCCC(=O)O)C(=O)O)C(=O)O)C(C)C [Example 16, N^ε27-[2-[2-[2-[[2-[2-[2-[[(4S)-4-carboxy-4-(13-carboxytridecanoylamino)butanoyl]amino]ethoxy]ethoxy]acetyl]amino]ethoxy]ethoxy]acetyl], N^ε37-[2-[2-[2-[[2-[2-[2-[[(4S)-4-carboxy-4-(13-carboxytridecanoylamino)butanoyl]amino]ethoxy]ethoxy]acetyl]amino]ethoxy]ethoxy]acetyl]-[Val^25,Arg^26,Lys^27,His^31,Gln^34,Lys^37]-GLP-1-(7-37)-peptide] (H-HAEGTFTSDVSSYLEGQAVRK([AEEA-AEEA-γGlu-C14 diacid])FIAHLVQGRK([AEEA-AEEA-γGlu-C14 diacid])-OH; N-terminus and C-terminus assumed) | – | 115 | 0.2 | – |

From patent US11117947B2, “Double-acylated GLP-1 derivatives” (Novo Nordisk A/S, priority 2011, dated 2021)
